# Results published in patent US7494986B2, “Cycloalkylamine derivatives as NK-1/SSRI antagonists” (Bristol-Myers Squibb Company, priority 2004, dated 2009).
# pIC50: −log10 of the molar value.
# Tests used:
# [1] = target: T1, neurokinin-1 (NK-1) receptor (Homo sapiens, UniProt P25103); experiment: NK-1 binding assay, [125I] Substance P competition on U373 cell membranes; details: Bolton Hunter labeled [125I] Substance P displacement
# T1 construct: endogenously expresses the neurokinin-1 (NK-1) receptor; endogenous in cells; host or cells: U373 human glioblastoma-astrocytoma cells (membranes)
# T1 sequence (P25103 whole entry): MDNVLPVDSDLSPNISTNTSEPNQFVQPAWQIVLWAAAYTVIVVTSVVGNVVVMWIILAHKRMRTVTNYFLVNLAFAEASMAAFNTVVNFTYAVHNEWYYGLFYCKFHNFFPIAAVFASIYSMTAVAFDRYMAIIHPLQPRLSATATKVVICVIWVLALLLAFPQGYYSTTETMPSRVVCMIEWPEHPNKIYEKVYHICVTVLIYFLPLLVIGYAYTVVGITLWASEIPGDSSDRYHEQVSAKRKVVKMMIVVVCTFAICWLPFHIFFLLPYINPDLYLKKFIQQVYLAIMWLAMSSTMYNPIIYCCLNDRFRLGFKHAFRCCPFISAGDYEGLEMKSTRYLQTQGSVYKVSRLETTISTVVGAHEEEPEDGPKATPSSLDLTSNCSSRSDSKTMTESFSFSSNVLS
# Experimental: U373 cells, a human glioblastoma-astrocytoma cell line that endogenously expresses the neurokinin-1 (NK-1) receptor, were grown in a monolayer culture at 37° C. in 5% CO2 and fed with Minimum Essential Medium (MEM) supplemented with 10% fetal bovine serum. Membranes were prepared as follows: Cells were washed twice with ice-cold phosphate-buffered saline (pH 7.4) and then incubated for 5 to 10 minutes with ice-cold 10 mM Tris buffer (pH 7.4) containing 5 mM EDTA. Cells were removed from plates, homogenized, and centrifuged at 32,000×g for 20 minutes. The resulting supernatant was discarded, and the pellet resuspended by homogenization in 50 mM Tris buffer (pH 7.4) containing 1 mM EDTA and centrifuged at 32,000×g for 20 minutes. […]
# On the day of an experiment the membrane preparation was thawed, homogenized and diluted with NK-1 binding assay buffer to the appropriate concentration. […] The amount of radioligand bound in the presence and absence of competitor was analyzed by plotting (−)log drug concentration versus the amount of radioligand specifically bound. […] Ki values were calculated using the method of Cheng and Prusoff [Cheng, Y.-C. and Prusoff, W. H., Biochemical Pharmacology, Vol. 22, pp. 3099-3108, Pergamon Press (1973)].
# [2] = target: T2, human serotonin transporters (Homo sapiens, UniProt P31645); experiment: Serotonin transporter binding assay, [3H]-citalopram competition on HEK-hSERT cell membranes; details: 1 nM [3H]-citalopram displacement, read-out: SERT IC50
# T2 construct: expressed in transfected cells
# T2 sequence (P31645 whole entry): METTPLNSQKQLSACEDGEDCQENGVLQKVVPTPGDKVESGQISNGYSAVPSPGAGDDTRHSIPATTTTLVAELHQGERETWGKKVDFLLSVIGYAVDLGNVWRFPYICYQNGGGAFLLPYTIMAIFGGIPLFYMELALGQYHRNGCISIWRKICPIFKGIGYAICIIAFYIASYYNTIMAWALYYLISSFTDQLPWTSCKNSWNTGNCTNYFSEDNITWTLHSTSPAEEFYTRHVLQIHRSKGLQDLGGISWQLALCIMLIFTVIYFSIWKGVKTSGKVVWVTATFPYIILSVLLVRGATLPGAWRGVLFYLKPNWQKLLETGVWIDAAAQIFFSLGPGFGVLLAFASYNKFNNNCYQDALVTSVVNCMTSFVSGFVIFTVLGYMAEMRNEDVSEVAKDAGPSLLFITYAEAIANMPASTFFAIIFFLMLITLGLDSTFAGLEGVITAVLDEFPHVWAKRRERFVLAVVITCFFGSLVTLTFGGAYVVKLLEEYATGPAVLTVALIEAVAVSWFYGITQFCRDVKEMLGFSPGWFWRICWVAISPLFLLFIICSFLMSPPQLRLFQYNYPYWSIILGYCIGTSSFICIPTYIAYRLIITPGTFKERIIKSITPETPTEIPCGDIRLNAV
# Experimental: HEK-293 cells that stably express human serotonin transporters (HEK-hSERT cells) were grown at 37° C. in 5% CO2 as a monolayer in medium consisting of EMEM supplemented with 10% fetal bovine serum and G418 sulfate (500 μg/ml). To prepare membranes for radioligand binding experiments, cells were rinsed twice with phosphate-buffered saline (138 mM NaCl, 4.1 mM KCl, 5.1 mM Na2PO4, 1.5 mM […], 11.1 mM glucose, pH 7.4). Cells were transferred from plates to polypropylene tubes (16×100 mm), centrifuged at 1,200×g for 5 min and were frozen at −80° C. until assay. Following centrifugation, pellets were resuspended by homogenization in buffer consisting of 50 mM Tris (pH 7.7 at 25° C.), 120 mM NaCl and 5 mM KCl and then centrifuged at 32,000×g for 10 min. Following centrifugation, supernatants were discarded and pellets were resuspended in buffer consisting of 50 mM Tris (pH 7.4 at 25° C.), 150 mM NaCl and 5 mM KCl. […] Amount of radioligand bound in the presence and absence of competitor was analyzed by plotting (−)log drug concentration versus the amount of radioligand specifically bound. […] Ki values were calculated using the method of Cheng and Prusoff Cheng and Prusoff [Cheng, Y.-C. and Prusoff, W. H., Biochemical Pharmacology, Vol. 22, pp. 3099-3108, Pergamon Press (1973)].
pIC50 [1],pIC50 [2],SMILES
> 7.70,7.00 to 7.70,"FC(F)(F)c1cc(COCC2(c3ccccc3)CCCNCCC2)cc(C(F)(F)F)c1 [Example 2, 5-((3,5-bis(trifluoromethyl)benzyloxy)methyl)-5-phenylazocane]"
> 7.70,7.00 to 7.70,"FC(F)(F)c1cc(COCC2(c3ccccc3)CCCCNCC2)cc(C(F)(F)F)c1 (stereo not shown) [Example 1, 4-((3,5-bis(trifluoromethyl)benzyloxy)methyl)-4-phenylazocane]"
